Series [1] deals with HUVEC. The series can be described thus: Cytoprotective activity against oxLDL-induced HUVEC cell damage assessed as increase in cell viability at 10 uM by SRB assay. Type of series: functional, cell-based. To be noted: Homo sapiens.
For series [2], the target named is T1, Nuclear factor erythroid 2-related factor 2 (Homo sapiens) (UniProt Q16236).
T1 sequence (whole entry): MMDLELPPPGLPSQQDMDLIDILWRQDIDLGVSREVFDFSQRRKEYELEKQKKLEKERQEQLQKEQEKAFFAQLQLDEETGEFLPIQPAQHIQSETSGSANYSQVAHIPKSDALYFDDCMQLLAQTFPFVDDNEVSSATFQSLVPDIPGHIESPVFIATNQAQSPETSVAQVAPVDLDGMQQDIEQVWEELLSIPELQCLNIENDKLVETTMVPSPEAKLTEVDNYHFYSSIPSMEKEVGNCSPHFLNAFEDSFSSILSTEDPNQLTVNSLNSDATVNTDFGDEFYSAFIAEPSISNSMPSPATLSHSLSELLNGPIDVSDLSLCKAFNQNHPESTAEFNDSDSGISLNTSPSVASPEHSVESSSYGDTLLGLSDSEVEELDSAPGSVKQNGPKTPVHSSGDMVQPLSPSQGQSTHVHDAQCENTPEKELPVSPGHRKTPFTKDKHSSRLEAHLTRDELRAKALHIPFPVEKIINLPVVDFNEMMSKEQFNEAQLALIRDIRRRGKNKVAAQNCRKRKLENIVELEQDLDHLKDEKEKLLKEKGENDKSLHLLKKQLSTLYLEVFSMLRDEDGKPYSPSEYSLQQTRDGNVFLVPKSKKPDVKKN
The series can be described thus: Induction of Nrf2/ARE activation in human Hela cells at 1 uM measured after 12 to 24 hrs by luciferase reporter gene assay relative to control. In kind it is cell-based. Conditions: filed as activator, time 12-24 hrs.

Series [3] deals with T1, Nuclear factor erythroid 2-related factor 2 (Homo sapiens). The series can be described thus: Induction of Nrf2/ARE activation in human Hela cells at 5 uM measured after 12 to 24 hrs by luciferase reporter gene assay relative to control. In kind it is cell-based. To be noted: filed as activator, time 12-24 hrs.
For series [4] the target is unchanged. The series can be described thus: Induction of Nrf2/ARE activation in human Hela cells at 10 uM measured after 12 to 24 hrs by luciferase reporter gene assay relative to control. In kind it is cell-based. To be noted: filed as activator, time 12-24 hrs.
Series [5] shares this target. The series can be described thus: Induction of Nrf2/ARE activation in human Hela cells at 20 uM measured after 12 to 24 hrs by luciferase reporter gene assay relative to control. Type of series: cell-based. To be noted: filed as activator, time 12-24 hrs.
Series [6] deals with HUVEC. The series can be described thus: Cytoprotective activity against high glucose-induced HUVEC cell damage assessed as increase in cell viability at 10 uM by SRB assay. Type of series: functional, cell-based. Conditions: Homo sapiens.
Series [7] concerns HUVEC. The series can be described thus: Cytoprotective activity against oxLDL-induced apoptosis in HUVEC cells measured after 6 hrs by TUNEL assay. Type of series: functional, cell-based. Conditions: Homo sapiens, dose 5-10 µM.
In series [8] the target is T1, Nuclear factor erythroid 2-related factor 2 (Homo sapiens). The series can be described thus: Induction of Nrf2 nuclear translocation in oxLDL-induced HUVEC cells at 5 to 10 uM measured after 6 hrs by immunofluorescence staining analysis. In kind it is cell-based. To be noted: filed as activator, dose 5-10 µM.
Series [9] has the same target. The series can be described thus: Induction of Nrf2 nuclear translocation in high glucose-induced HUVEC cells at 5 to 10 uM measured after 24 hrs by immunofluorescence staining analysis. Type of series: cell-based. Conditions: filed as activator, dose 5-10 µM.
The test system of series [10] is HUVEC. The series can be described thus: Cytotoxicity against HUVEC assessed as effect on cell viability by SRB assay. Type of series: toxicity, cell-based. To be noted: human.
In series [11] the test system is HUVEC. The series can be described thus: Cytoprotective activity against high glucose-induced apoptosis in HUVEC cells measured after 24 hrs by TUNEL assay. In kind it is functional, cell-based. To be noted: Homo sapiens, dose 5-10 µM.
Series [12] has as its system HUVEC. The series can be described thus: Cytoprotective activity against oxLDL-induced apoptosis in HUVEC treated with scambled siRNA at 10 uM measured after 6 hrs by TUNEL assay. Conditions: Homo sapiens. Type of series: functional, cell-based.
Series [13] relates to HUVEC. The series can be described thus: Cytoprotective activity against oxLDL-induced apoptosis in Nrf2-knockdown HUVEC at 10 uM measured after 6 hrs by TUNEL assay. Type of series: functional, cell-based. To be noted: Homo sapiens.
For series [14], the system named is HUVEC. The series can be described thus: Cytoprotective activity against high glucose induced apoptosis in HUVEC treated with scambled siRNA at 10 uM measured after 24 hrs by TUNEL assay. Type of series: functional, cell-based. Conditions: Homo sapiens.
Series [15] relates to HUVEC. The series can be described thus: Cytoprotective activity against high glucose-induced apoptosis in Nrf2-knockdown HUVEC at 10 uM measured after 24 hrs by TUNEL assay. Conditions: Homo sapiens. Type of series: functional, cell-based.
The target of series [16] is Keap1/Nrf2 (Homo sapiens) (UniProt Q16236+Q14145). The series can be described thus: Inhibition of Keap1-Nrf2 protein-protein interaction (unknown origin) at 100 uM measured after 60 mins by FITC-betaAla-DEETGEF-OH probe based fluorescent polarization assay.

Active and inactive are the calls of the source. The calls are words filed in the database; no cut-off is given here.

Sequence of Keap1/Nrf2 (Homo sapiens) (Q14145 whole entry, looked up, one chain of several): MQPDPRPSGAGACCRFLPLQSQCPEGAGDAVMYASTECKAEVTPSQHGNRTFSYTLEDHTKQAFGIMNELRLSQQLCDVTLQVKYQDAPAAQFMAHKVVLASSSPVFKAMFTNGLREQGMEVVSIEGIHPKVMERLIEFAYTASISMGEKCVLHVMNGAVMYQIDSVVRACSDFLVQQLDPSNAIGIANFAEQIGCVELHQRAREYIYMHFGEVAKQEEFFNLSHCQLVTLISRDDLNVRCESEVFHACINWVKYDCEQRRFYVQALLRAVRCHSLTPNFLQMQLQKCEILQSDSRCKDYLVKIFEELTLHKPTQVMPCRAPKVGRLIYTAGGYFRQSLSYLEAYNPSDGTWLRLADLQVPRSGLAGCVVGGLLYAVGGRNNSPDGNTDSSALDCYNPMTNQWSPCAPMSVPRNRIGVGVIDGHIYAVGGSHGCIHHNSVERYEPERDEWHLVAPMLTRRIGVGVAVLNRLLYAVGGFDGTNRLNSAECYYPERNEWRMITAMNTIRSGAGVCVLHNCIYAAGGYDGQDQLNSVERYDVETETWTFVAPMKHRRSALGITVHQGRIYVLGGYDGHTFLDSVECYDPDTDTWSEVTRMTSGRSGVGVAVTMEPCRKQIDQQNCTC

`N#Cc1ccc(CN2CCN(Cc3noc(Cc4c[nH]c5ccccc45)n3)CC2)cc1`: the outcome (in the series with HUVEC [1]; in the series with HUVEC [6]; in series [8]; in [9]) was Active. The fold change (FC) in series [2] amounted to 1.38; in series [3] it was 3.14; in series [4] it was 5.88; in series [5], 5.18. In addition, the Activity entry in the series with HUVEC [7] is “Dose-Dependent Effect”; in the series on HUVEC [10] it was “Non-Toxic”; with HUVEC [11], “Dose-Dependent Effect”.
Consider `O=C(/C=C/c1ccc(Cl)c(Cl)c1)N1CCN(Cc2noc(Cc3c[nH]c4ccccc34)n2)CC1`, for which the outcome in the series on HUVEC [1] was Active. In addition, the fold change (FC) came to 1.34 in series [2], 3.76 in [3], 6.64 in series [4] and 7.09 in series [5]. Moreover, in the series with HUVEC [10], the Activity entry is “Non-Toxic”.
Take `COc1ccc(/C=C/C(=O)N2CCN(Cc3noc(Cc4c[nH]c5ccccc45)n3)CC2)cc1O`: the outcome (with HUVEC [1]; with HUVEC [6]; in series [8]; in series [9]; in the series on HUVEC [12]; in the series with HUVEC [14]) was Active. In addition, the fold change (FC) was 1.89 in [2], 3.69 in series [3], 7.78 in [4] and 7.41 in series [5]. Besides, the Activity result with HUVEC [7] was “Dose-Dependent Effect”; in the series with HUVEC [10], “Non-Toxic”; in the series with HUVEC [11], “Dose-Dependent Effect”. Besides, the result in the series with HUVEC [13] and in the series with HUVEC [15] was inactive. Moreover, the inhibition result in [16] was “inactive”.

The record behind these values is ChEMBL document CHEMBL5365471, “Discovery of marine phidianidine-based Nrf2 activators and their potential against oxLDL- and HG-induced injury in HUVECs” (Bioorg Med Chem Lett, 2023).
